According to the Kinase Knowledgebase extract (Sharma et al. 2016):

How the values were obtained:
[1] = molecular target: MAPK14 (human) (UniProt Q16539); assay: Inhibition of LPS Stimulated TNF Production by U937 Cells
[2] = molecular target: MAPK14 (human) (UniProt Q16539); assay: Inhibition of MAPK14 Kinase Activity by PHAS-I Assay; settings: for inhibition: concentration not given here

Chain of MAPK14 (human) (Q16539 whole entry, looked up): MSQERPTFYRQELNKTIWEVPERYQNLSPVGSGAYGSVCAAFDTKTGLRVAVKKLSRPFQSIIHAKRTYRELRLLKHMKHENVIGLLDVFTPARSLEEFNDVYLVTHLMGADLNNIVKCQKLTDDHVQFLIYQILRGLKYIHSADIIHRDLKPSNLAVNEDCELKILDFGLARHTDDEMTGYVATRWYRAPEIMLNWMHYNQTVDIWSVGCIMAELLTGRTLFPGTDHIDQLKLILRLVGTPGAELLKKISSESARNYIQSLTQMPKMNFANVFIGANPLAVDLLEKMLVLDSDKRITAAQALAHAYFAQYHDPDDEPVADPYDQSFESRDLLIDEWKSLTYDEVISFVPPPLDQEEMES

Row | SMILES | IC50 [1] [nM] | inhibition [2] [%] | inhibition ([1]; concentration not given here) [%] | IC50 [2] [nM] | inhibition [1] [µM]
1 | O=S(=O)(NCc1[nH]nc(-c2ccc(F)cc2)c1-c1ccncc1)c1cc(Cl)c(Cl)s1 | 1810 | 78 |  |  | 
2 | Cc1c(-c2ccncc2)c(-c2ccc(F)cc2)nn1CC(=O)N(C)CCCC1c2ccccc2CCc2ccccc21 | > 10000 | 50 |  |  | 
3 | Cc1c(-c2ccncc2)c(-c2ccc(F)cc2)nn1CC(=O)N1CCC[C@H]1CN1CCCC1 |  | 49 | 10 |  | 
4 | CCOC(=O)NC(=O)NCc1[nH]nc(-c2ccc(F)cc2)c1-c1ccncc1 |  | 51 | 24 |  | 
5 | COc1ccc(C2OCCN2C(=O)Cn2nc(-c3ccc(F)cc3)c(-c3ccncc3)c2C)cc1OC (stereo not drawn) |  | 69 | 18 |  | 
6 | CNC(=O)CC[C@H](NC(=O)c1ccc(I)cc1)c1[nH]nc(-c2ccc(F)cc2)c1-c1ccncc1 |  |  | 8 | 3280 | 
7 | C[C@H](NS(=O)(=O)c1cc(Cl)cc(Cl)c1O)c1[nH]nc(-c2ccc(F)cc2)c1-c1ccncc1 |  |  | 76 | 170 | 
8 | O=C(NCCc1[nH]nc(-c2ccc(F)cc2)c1-c1ccncc1)[C@H]1CCCN1 |  | 89 | 63 |  | 
9 | O=C(CCC1CC=CC1)NCc1[nH]nc(-c2ccc(F)cc2)c1-c1ccncc1 |  | 71 | 84 |  | 
10 | C[C@@H](NS(=O)(=O)c1cc(Cl)cc(Cl)c1O)c1[nH]nc(-c2ccc(F)cc2)c1-c1ccncc1 |  |  | 71 | 1110 | 
11 | Cc1c(-c2ccncc2)c(-c2ccc(F)cc2)nn1CC(=O)N1CCCCC1CCN1CCCCC1 (stereo not drawn) |  | 26 | 13 |  | 
12 | CCCCCc1cccc(C(C)NC(=O)Cn2nc(-c3ccc(F)cc3)c(-c3ccncc3)c2C)c1 (stereo not drawn) |  | 65 | 25 |  | 
13 | O=S(=O)(NCCc1[nH]nc(-c2ccc(F)cc2)c1-c1ccncc1)C(F)(F)F |  | 82 | 66 |  | 
14 | CCOC(=O)CNC(=O)NCc1[nH]nc(-c2ccc(F)cc2)c1-c1ccncc1 |  | 70 | 27 |  | 
15 | CC1(C)[C@@H]2CC[C@]1(CS(=O)(=O)NCCc1[nH]nc(-c3ccc(F)cc3)c1-c1ccncc1)C(=O)C2 |  |  | 44 | 160 | 
16 | CCOC(=O)C(CCSC)NC(=O)NCc1[nH]nc(-c2ccc(F)cc2)c1-c1ccncc1 (stereo not drawn) |  | 44 | 22 |  | 
17 | Cc1ccc(NC(=O)Cn2nc(-c3ccc(F)cc3)c(-c3ccncc3)c2C)cc1 | > 10000 | 85 |  |  | 
18 | CCC(=O)C(=O)CCCCCNC(=O)NCCc1[nH]nc(-c2ccc(F)cc2)c1-c1ccncc1 | > 1000 | 69 |  |  | 

Row | SMILES | IC50 [1] [nM] | inhibition [2] [%] | inhibition ([1]; concentration not given here) [%] | IC50 [2] [nM] | inhibition [1] [µM]
19 | COC(=O)C1CN1C(=O)Cn1nc(-c2ccc(F)cc2)c(-c2ccncc2)c1C (stereo not drawn) |  | 45 | 24 |  | 
20 | Cc1c(-c2ccncc2)c(-c2ccc(F)cc2)nn1CC(=O)N[C@@H](C)c1ccccc1 |  | 83 | 46 |  | 
21 | CCN(CC)C1CCN(C(=O)Cn2nc(-c3ccc(F)cc3)c(-c3ccncc3)c2C)C1 (stereo not drawn) |  | 40 |  |  | 59
22 | CCOC(=O)C(CCSC)NC(=O)NCCc1[nH]nc(-c2ccc(F)cc2)c1-c1ccncc1 (stereo not drawn) |  | 69 | 54 |  | 
23 | Cc1[nH]nc(-c2ccc3c(c2)CCCO3)c1-c1ccncc1 | 208 |  |  | 800 | 
24 | Cc1c(-c2ccncc2)c(-c2ccc(F)cc2)nn1CC(=O)N(CC1CC1)C(C)Cc1ccc(Cl)cc1 (stereo not drawn) |  | 83 | 22 |  | 
25 | CCOC(=O)CC[C@H](NC(=O)Cn1nc(-c2ccc(F)cc2)c(-c2ccncc2)c1C)C(=O)OCC | > 10000 | 45 |  |  | 
26 | Cc1ccc([C@@H](C)NC(=O)Cn2nc(-c3ccc(F)cc3)c(-c3ccncc3)c2C)cc1 |  | 81 | 45 |  | 
27 | CC1(C)[C@H]2CC[C@@]1(CS(=O)(=O)NCCCc1[nH]nc(-c3ccc(F)cc3)c1-c1ccncc1)C(=O)C2 |  |  | 38 | < 100 | 
28 | Cc1c(-c2ccncc2)c(-c2ccc(F)cc2)nn1CC(=O)N(C)CCN1CCOCC1 |  | 32 | 28 |  | 
29 | CC[C@H](C)NC(=O)Cn1nc(-c2ccc(F)cc2)c(-c2ccncc2)c1C |  | 76 | 38 |  | 
30 | CCC(=O)C(=O)CNC(=O)NCc1[nH]nc(-c2ccc(F)cc2)c1-c1ccncc1 | > 1000 | 51 |  |  | 
31 | C[C@@H](NS(=O)(=O)c1ccccc1C(=O)O)c1[nH]nc(-c2ccc(F)cc2)c1-c1ccncc1 |  |  | 59 | 580 | 
32 | O=S(=O)(/C=C/c1ccccc1)NCCc1[nH]nc(-c2ccc(F)cc2)c1-c1ccncc1 |  | 58 | 10 |  | 
33 | CC1(C)[C@H]2CC[C@@]1(CS(=O)(=O)NCCc1[nH]nc(-c3ccc(F)cc3)c1-c1ccncc1)C(=O)C2 |  |  | 26 | < 100 | 
34 | Cc1cc(Cl)ccc1OCC1SCCN1C(=O)Cn1nc(-c2ccc(F)cc2)c(-c2ccncc2)c1C (stereo not drawn) | > 10000 | 47 |  |  | 
35 | CCOC(=O)COc1cccc(NC(=O)Cn2nc(-c3ccc(F)cc3)c(-c3ccncc3)c2C)c1 |  | 83 | 36 |  | 

The remaining lines, values ahead:

Row | IC50 [1] [nM] | inhibition [2] [%] | inhibition ([1]; concentration not given here) [%] | IC50 [2] [nM] | inhibition [1] [µM] | SMILES
36 |  | 69 | 65 |  |  | O=S(=O)(/C=C/c1ccccc1)NCCCc1[nH]nc(-c2ccc(F)cc2)c1-c1ccncc1
37 |  | 79 | 66 |  |  | O=C(NCCCc1[nH]nc(-c2ccc(F)cc2)c1-c1ccncc1)C1CCCC1
38 |  |  | 9 | 19 |  | O=C(NCCCc1[nH]nc(-c2ccc(F)cc2)c1-c1ccncc1)NCCc1ccc(F)cc1
39 |  | 53 | 14 |  |  | COc1ccccc1C(=O)NCCc1[nH]nc(-c2ccc(F)cc2)c1-c1ccncc1
40 |  | 69 | 66 |  |  | CC(C)(C)C(=O)NCCc1[nH]nc(-c2ccc(F)cc2)c1-c1ccncc1
41 |  | 98 | 52 |  |  | CC(=O)Oc1cccc(C(=O)NCc2[nH]nc(-c3ccc(F)cc3)c2-c2ccncc2)c1
42 |  | 69 | 22 |  |  | O=C(NCCc1[nH]nc(-c2ccc(F)cc2)c1-c1ccncc1)c1ccc(F)c(F)c1F
43 |  | 69 | 34 |  |  | CCOC(=O)CCNC(=O)NCCc1[nH]nc(-c2ccc(F)cc2)c1-c1ccncc1
44 | 1160 | 70 |  |  |  | COc1ccc(CC(=O)NCCCc2[nH]nc(-c3ccc(F)cc3)c2-c2ccncc2)cc1
45 |  |  | 51 | 110 |  | CN(C)C(=O)NCc1[nH]nc(-c2ccc(F)cc2)c1-c1ccncc1
46 |  |  | 36 | 330 |  | O=S(=O)(NCCc1[nH]nc(-c2ccc(F)cc2)c1-c1ccncc1)c1ccc(Cl)c(Cl)c1
47 |  | 72 | 65 |  |  | O=C(NCCc1[nH]nc(-c2ccc(F)cc2)c1-c1ccncc1)C1CCC1
48 |  | 72 | 66 |  |  | O=C(NCCc1[nH]nc(-c2ccc(F)cc2)c1-c1ccncc1)Nc1cccc(F)c1
49 |  | 84 | 53 |  |  | CCCCS(=O)(=O)NCCc1[nH]nc(-c2ccc(F)cc2)c1-c1ccncc1
50 |  | 67 | 65 |  |  | CCNC(=O)NCCc1[nH]nc(-c2ccc(F)cc2)c1-c1ccncc1
51 |  |  | 75 | < 100 |  | N#Cc1ccc(S(=O)(=O)NCCCc2[nH]nc(-c3ccc(F)cc3)c2-c2ccncc2)cc1
52 |  | 67 | 67 |  |  | COc1ccc(CC(=O)NCCCc2[nH]nc(-c3ccc(F)cc3)c2-c2ccncc2)cc1OC
53 |  | 82 | 20 |  |  | O=C(NCCc1[nH]nc(-c2ccc(F)cc2)c1-c1ccncc1)Nc1ccc(C(F)(F)F)cc1
54 | 2050 | 23 |  |  |  | O=C(NCc1[nH]nc(-c2ccc(F)cc2)c1-c1ccncc1)Nc1ccccc1F
55 |  | 35 | 26 |  |  | O=C(NCCc1[nH]nc(-c2ccc(F)cc2)c1-c1ccncc1)Nc1ccc(-c2ccccc2)cc1

Row | IC50 [1] [nM] | inhibition [2] [%] | inhibition ([1]; concentration not given here) [%] | IC50 [2] [nM] | inhibition [1] [µM] | SMILES
56 |  | 55 | 43 |  |  | COCC(=O)NCCc1[nH]nc(-c2ccc(F)cc2)c1-c1ccncc1
57 |  | 67 | 9 |  |  | C=Cc1ccc(S(=O)(=O)NCc2[nH]nc(-c3ccc(F)cc3)c2-c2ccncc2)cc1
58 |  | 74 | 29 |  |  | O=C(NCCc1[nH]nc(-c2ccc(F)cc2)c1-c1ccncc1)c1ccccc1
59 |  | 74 | 68 |  |  | O=S(=O)(NCCCc1[nH]nc(-c2ccc(F)cc2)c1-c1ccncc1)C(F)(F)F
60 |  | 75 | 52 |  |  | CN(C)C(=O)NCCc1[nH]nc(-c2ccc(F)cc2)c1-c1ccncc1
61 |  | 67 | 19 |  |  | CCN(CC)C(=O)NCCc1[nH]nc(-c2ccc(F)cc2)c1-c1ccncc1
62 |  | 79 | 12 |  |  | C[C@H](NC(=O)NCCc1[nH]nc(-c2ccc(F)cc2)c1-c1ccncc1)c1ccccc1
63 |  | 70 | 71 |  |  | CC(=O)OC(C)(C)C(=O)NCCc1[nH]nc(-c2ccc(F)cc2)c1-c1ccncc1
64 | 790 | 71 |  |  |  | COc1cccc(C(=O)NCCCc2[nH]nc(-c3ccc(F)cc3)c2-c2ccncc2)c1
65 |  | 80 | 29 |  |  | CC(C)c1ccccc1NC(=O)NCCc1[nH]nc(-c2ccc(F)cc2)c1-c1ccncc1
66 |  | 65 | 9 |  |  | C[C@@H](NC(=O)NCCCc1[nH]nc(-c2ccc(F)cc2)c1-c1ccncc1)c1ccccc1
67 | 880 | 76 |  |  |  | COc1ccc(OC)c(NC(=O)NCCc2[nH]nc(-c3ccc(F)cc3)c2-c2ccncc2)c1
68 |  | 69 | 45 |  |  | O=C(NCc1[nH]nc(-c2ccc(F)cc2)c1-c1ccncc1)c1ccc(OC(F)(F)F)cc1
69 |  | 81 | 25 |  |  | O=C(NCCc1[nH]nc(-c2ccc(F)cc2)c1-c1ccncc1)N[C@@H]1C[C@@H]1c1ccccc1
70 |  | 47 | 37 |  |  | CSc1cccc(NC(=O)NCCc2[nH]nc(-c3ccc(F)cc3)c2-c2ccncc2)c1
71 |  | 52 | 34 |  |  | O=C(NCCc1[nH]nc(-c2ccc(F)cc2)c1-c1ccncc1)c1ccccn1
72 |  | 76 | 60 |  |  | NC(=O)NCCc1[nH]nc(-c2ccc(F)cc2)c1-c1ccncc1
73 |  | 68 | 68 |  |  | CNC(=O)NCCc1[nH]nc(-c2ccc(F)cc2)c1-c1ccncc1
74 |  | 94 | 76 |  |  | CCC(C(=O)NCc1[nH]nc(-c2ccc(F)cc2)c1-c1ccncc1)c1ccccc1 (stereo not drawn)
